Data on one compound can be found in patent publication US6355426B2, “Methods for the characterization and selection of RNA target motifs that bind compounds of pharmaceutical use” (priority 1996, dated 2002).

For experiment [1], the system named is E. coli strains DH5a and JM109. As to the kind of experiment: Growth of pGEMR / pGEMR294 transformants on plates with varying concentrations of spectinomycin. In kind it is cell-based. Particulars: 37° C. The protocol:
E. coli strains DH5a and JM109 were conventionally transformed with pGP1-2, and were subsequently transformed by pGEMR (control) and pGEMR294 (which contains the 16S sequence) as described above in Example 1D. Transformants were selected on LB agar containing ampicillin (200 ug/mL) and kanamycin ([…]). These transformants were subsequently examined for their ability to grow in the presence of varying concentrations of spectinomycin (5, 10, 15, 20 and 40 ug/mL). Spectinomycin resistant transformants were recovered at 37° C.
By contrast, transformants of pGEMR294 grew in the presence of the drug up to […]. Plasmids isolated from the transformants and used to retransform each strain, confirmed that resistance was indeed plasmid dependent.

For the next experiment, the system named is E. coli strain DC2. In words: Selection of spectinomycin-resistant transformants from a random rRNA fragment library. It counts as cell-based. From the text: Random rDNA fragments were generated by restriction endonuclease digestion of the entire rrnB operon encoding all three rDNAs (16S, 23S and 5S) and the spacer regions using a range and combination of one or more enzymes (including either AluI, HaeIII or DpnI or a double digestion with AluI/DpnI or HaeIII/DpnI) in which recognition sites occurred frequently within the target sequence. The enzymes AluI, HaeIII and DpnI release fragments that can be cloned in either orientation in to the SmaI site on pGEMR.
The fragments were ligated into the SmaI site in pGEMR and used to transform the respective strains. The diversity of RNA fragments within the library was determined by in vitro transcription of radiolabeled transcripts using the RIBOMAXÔ system (Promega), resolution by denaturing gel electrophoresis, and autoradiography according to standard procedures [Sambrook et al, cited above]. Briefly described, to establish that the pool of transformants harbored pGEMR encoding a mixed population of rRNA fragments, the plasmids were isolated, linearized with HindIII and transcribed in vitro with T7 RNA polymerase in the presence of ^32PaUTP. The products were resolved by denaturing gel electrophoresis and visualized by autoradiography. The library consisted of a large number of transcripts, varying in size with an average of 200-500 nucleotides in length. […]

For experiment [2], the system named is 30S subunits and 3' domain 16S rRNA sub-particle. Particulars: 30S subunits and reconstituted 3' domain particle (nucleotides 923-1542 with eight r-proteins); cited from earlier work.

Regarding `CN[C@@H]1[C@H](O)[C@H](NC)[C@H]2O[C@@]3(O)C(=O)C[C@@H](C)O[C@H]3O[C@@H]2[C@H]1O` [spectinomycin], the “spectinomycin concentration up to which transformants grew” value in experiment [1] (transformants of pGEMR294 (16S rRNA fragment nucleotides 972-1266, helix 34) with pGP1-2) is reported as “up to 20 mg/mL”. In experiment [1] (transformants of pGEMR (control) with pGP1-2), the “spectinomycin concentration above which transformants did not survive on plates” value is on record as “above 5 mg/mL”. Also, the “spectinomycin concentration up to which resistant transformants developed on plates” value in the experiment on E. coli strain DC2 (DC2 (pGP1-2) transformed with rRNA fragment library (16S/23S hybrid fragment), after 48 hours incubation at 37° C.) is reported as “up to 40 ug/mL”. The “level of spectinomycin resistance, transformants expressing 16/23S RNA versus wild type helix 34 fragment” value with E. coli strain DC2 (comparison of transformants expressing 16/23S hybrid RNA with those encoding wild type helix 34 fragment) was “higher level of spectinomycin resistance”. The “binding affinity to 30S subunit versus 3' domain sub-particle (dependence of protection on drug concentration)” value in experiment [2] is given as “binds with similar affinity to each particle”.
